Measured values: patent publication US20260217732A1, “WRN INHIBITOR” (SUZHOU PUHE BIOPHARMA CO., LTD., priority 2022, published 2026)
Like-named read-outs stand apart in the source and are kept apart here.

Key:
[1] = biological target: T1, WRN enzyme (Homo sapiens, UniProt Q14191); assay: WRN helicase hydrolysis (unwinding) of double-stranded DNA, fluorescence assay; assay type: biochemical; conditions: 30 min pre-incubation, 60 min reaction
T1 construct: 10 μL (2×) of WRN enzyme solution was added
T1 sequence (Q14191 whole entry): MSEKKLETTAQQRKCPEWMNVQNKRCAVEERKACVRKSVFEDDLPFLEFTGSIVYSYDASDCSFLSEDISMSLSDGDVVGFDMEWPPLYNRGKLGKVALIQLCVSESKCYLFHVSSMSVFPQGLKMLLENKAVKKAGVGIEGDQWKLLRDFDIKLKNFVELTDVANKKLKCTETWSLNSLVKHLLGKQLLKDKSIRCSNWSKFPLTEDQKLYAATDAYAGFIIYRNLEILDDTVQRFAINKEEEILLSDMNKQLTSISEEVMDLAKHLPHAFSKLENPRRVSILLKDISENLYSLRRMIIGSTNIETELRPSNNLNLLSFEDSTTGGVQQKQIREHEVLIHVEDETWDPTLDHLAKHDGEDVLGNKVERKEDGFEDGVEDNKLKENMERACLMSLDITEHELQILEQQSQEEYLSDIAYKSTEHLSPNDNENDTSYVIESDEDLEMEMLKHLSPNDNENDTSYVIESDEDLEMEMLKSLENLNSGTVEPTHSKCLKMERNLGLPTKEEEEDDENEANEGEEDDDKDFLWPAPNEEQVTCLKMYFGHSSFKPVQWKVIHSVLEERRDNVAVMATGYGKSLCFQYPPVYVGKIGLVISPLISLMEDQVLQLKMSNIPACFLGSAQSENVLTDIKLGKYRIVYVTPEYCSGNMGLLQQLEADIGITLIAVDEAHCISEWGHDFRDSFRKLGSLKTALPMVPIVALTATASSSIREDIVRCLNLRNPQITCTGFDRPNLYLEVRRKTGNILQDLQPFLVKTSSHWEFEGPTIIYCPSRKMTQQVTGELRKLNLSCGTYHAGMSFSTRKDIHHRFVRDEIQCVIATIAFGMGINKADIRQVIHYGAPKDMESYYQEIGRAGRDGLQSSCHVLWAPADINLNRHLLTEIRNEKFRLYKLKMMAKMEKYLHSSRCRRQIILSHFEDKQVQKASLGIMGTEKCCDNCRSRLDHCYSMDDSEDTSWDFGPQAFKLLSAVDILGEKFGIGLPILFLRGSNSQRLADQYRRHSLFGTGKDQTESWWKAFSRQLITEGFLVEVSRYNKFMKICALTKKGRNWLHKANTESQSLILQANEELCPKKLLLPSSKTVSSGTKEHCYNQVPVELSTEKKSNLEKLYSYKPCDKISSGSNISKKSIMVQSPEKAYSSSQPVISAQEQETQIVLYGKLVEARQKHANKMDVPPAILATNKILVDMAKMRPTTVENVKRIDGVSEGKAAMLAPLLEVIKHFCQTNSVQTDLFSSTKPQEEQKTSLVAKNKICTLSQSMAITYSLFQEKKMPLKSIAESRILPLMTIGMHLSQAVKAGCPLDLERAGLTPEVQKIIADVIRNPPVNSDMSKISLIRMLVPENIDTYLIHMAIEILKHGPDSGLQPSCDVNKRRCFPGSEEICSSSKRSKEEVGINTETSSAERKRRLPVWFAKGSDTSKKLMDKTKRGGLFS
Procedure: • The molecules of the present disclosure were tested for their activities on the WRN helicase hydrolysis of double-stranded DNA (Table 1).
A working solution to be tested and a buffer were prepared. The compound to be tested was dissolved in DMSO and subjected to 4× dilution (with 10 μM final concentration as the starting concentration). 0.2 μL of the solution of the compound to be tested was added to the 384-well plate and 10 μL (2×) of WRN enzyme solution was added. The solution was incubated in the dark for 30 minutes. Then, 10 μL of a substrate detection solution containing double-stranded DNA was added to initiate the reaction (the DNA has a length of 19 bp, and labeled with TAMRA and BHQ2 at 3′ and 5′-ends, respectively). The solution was incubated at room temperature for 60 minutes. The inhibitory activities (IC50) against WRN enzyme were calculated based on the change of Ex530/Em590 in the blank group (DMSO) and the compound group.

[2] = system: SW48 colorectal cancer cells; assay: 2D antiproliferation on MSI-H SW48 cells, CTG, 5 days; assay type: cell-based; conditions: for IC50 / inhibition at 38.15 pM / inhibition at 0.000152588 µM / inhibition at 0.000610352 µM / inhibition at 0.00244141 µM / inhibition at 0.00976562 µM / inhibition at 0.0390625 µM / inhibition at 0.15625 µM / inhibition at 0.625 µM / inhibition at […] / inhibition at 10 µM: Homo sapiens; for IC50: 120 h, SW48 MSI-H, 5 days; for inhibition at 38.15 pM: SW48, 0.038146973 nM; for inhibition at 0.000152588 µM: SW48, 0.152587891 nM; for inhibition at 0.000610352 µM: SW48, 0.610351563 nM; for inhibition at 0.00244141 µM: SW48, 2.44140625 nM; for inhibition at 0.00976562 µM: SW48, 9.765625 nM; for inhibition at 0.0390625 µM: SW48, 39.0625 nM; for inhibition at 0.15625 µM: SW48, 156.25 nM; for inhibition at 0.625 µM: SW48, 625 nM; for inhibition at […]: SW48, 2500 nM; for inhibition at 10 µM: SW48, 10000 nM
Procedure: The molecules of the present disclosure were tested for their anti-proliferative activity on MSI-H tumor cells.
SW48 colorectal cancer cells with MSI were cultured in a RMI1640 medium containing 10% FBS and 1% penicillin-streptomycin, and the mixture was cultured in a 37° C., 5% CO2 incubator. 40 μL of cell suspension was added to each well of a 384-well microplate. […] of compounds with different concentrations were added to each well using Echo, and the mixtures were cultured in a 37° C., 5% CO2 incubator for 5 days. 40 μL of CTG solution (Promega, Cat No. G7573) was added to each well and incubated in a 37° C., 5% CO2 incubator in the dark for 30 minutes. The luminescence value was read using an Envision multi-function microplate reader (Perkin Elmer, catalog number Envision 2104). The optical signal is proportional to the amount of ATP in the system, while the ATP content directly characterizes the number of viable cells in the system.

[3] = system: HT-29 colorectal cancer cells; assay: 2D antiproliferation on MSS HT-29 cells, CTG, 5 days; assay type: cell-based; conditions: Homo sapiens, 120 h, HT-29 MSS
Procedure: The molecules of the invention were tested for their anti-proliferative activities on MSS tumor cells.
HT-29 colorectal cancer cells with MSS were cultured in a McCoy's 5A medium containing 10% FBS and 1% penicillin-streptomycin in a 37° C., 5% CO2 constant temperature incubator. 40 μL of cell suspension was added to each well of a 384-well microplate. […] of compounds with different concentrations were added to each well using Echo. The mixtures were cultured in a 37° C., 5% CO2 constant temperature incubator for 5 days. 40 μL of CTG solution (Promega, Cat No. G7573) was added to each well, and the mixture was incubated in a 37° C., 5% CO2 constant temperature incubator for 30 minutes in the dark. The luminescence value was read using an Envision multi-function microplate reader (Perkin Elmer, catalog number Envision 2104). The optical signal is proportional to the amount of ATP in the system, while the ATP content directly characterizes the number of viable cells in the system.

[4] = system: SW48 (MSI-H) colorectal cancer tumor cells; assay: In vivo efficacy, SW48 xenograft in nude mice; set-up: species or system BALB/c nude mice; conditions: QD, oral; for TGI: 21 days; for Tumor Volume D 1: day 1; for Tumor volume D 21: day 21
Procedure: In vivo efficacy experiment in BALB/C nude mice. Details are as follows:
SW48 (MSI-H) colorectal cancer tumor cells were cultured (in an L15 medium with 10% fetal bovine serum), and inoculated into 6-8 week old female BALB/c nude mice (with body weight of about 20 g). All the mice were inoculated subcutaneously. The mice were raised in an SPF-grade experimental environment, and all the mice were free to take commercially certified standard diets. When the tumors grew to an average volume of about 160 mm^3 in mice, the test compound was orally administered daily. […] The tumor volume was measured with a two-dimensional caliper three times a week, and the animals were weighed every day. […] The volume calculation formula is: V=1/2a*b^2, where a represents the long diameter of the tumor and b represents the short diameter of the tumor.

[5] = female, CD1, mouse, in vivo
Procedure: (§1) Mouse Pharmacokinetic Evaluation Experiment
(§2) CD1 female mice were used as test animals to be administered orally/intravenously (with oral dosage of 10 mg/kg or intravenous dosage of 2 mg/kg).
(§3) Experimental scheme: The oral administration group comprised 3 mice per group (Solvent: 10% Hβ-CD-pH7.4), and the intravenous group comprised 3 mice per group. […] The blood concentration in the plasma of mice was determined using the LC/MS/MS method after the oral or intravenous administration, respectively, and the collected data were calculated using the AB Sciex QTRAP 6500 software.

[6] = in vivo; conditions: female, CD1, mouse
Procedure: as §1, §2, §3

[7] = read-out: Average Value/Inhibition Rate
[8] = read-out: Test 1/Inhibition Rate
[9] = read-out: Test 2/Inhibition Rate

Row | IC50 [1] [nM] | IC50 [2] [nM] | IC50 [3] [nM] | Compound | inhibition at 38.15 pM [2, 7] [%] | inhibition at 38.15 pM [2, 8] [%] | inhibition at 38.15 pM [2, 9] [%] | inhibition at 0.000152588 µM [2, 7] [%] | inhibition at 0.000152588 µM [2, 8] [%] | inhibition at 0.000152588 µM [2, 9] [%] | inhibition at 0.000610352 µM [2, 7] [%] | inhibition at 0.000610352 µM [2, 8] [%] | inhibition at 0.000610352 µM [2, 9] [%] | inhibition at 0.00244141 µM [2, 7] [%] | inhibition at 0.00244141 µM [2, 8] [%] | inhibition at 0.00244141 µM [2, 9] [%] | inhibition at 0.00976562 µM [2, 7] [%] | inhibition at 0.00976562 µM [2, 8] [%] | inhibition at 0.00976562 µM [2, 9] [%] | inhibition at 0.0390625 µM [2, 7] [%] | inhibition at 0.0390625 µM [2, 8] [%] | further results
1 | 1.1 | 39 | > 10000 | CCc1c(N2CCN(C(=O)c3ncnc(C)c3O)CC2)c(=O)n2nc(-c3cc4c(s3)COC4)nc2n1CC(=O)Nc1ccc(Br)cc1Cl [P24] | -4.41 | -3.47 | -5.36 | -3.37 | -6.51 | -0.227 | -6.66 | -6.64 | -6.68 | -5.26 | -4.87 | -5.64 | -8.31 | -8.85 | -7.77 | 43.7 | 40.3 | inhibition at 0.0390625 µM [2, 9]: 47.1%; inhibition at 0.15625 µM [2, 7]: 98.7%; inhibition at 0.15625 µM [2, 8]: 98.6%; inhibition at 0.15625 µM [2, 9]: 98.8%; inhibition at 0.625 µM [2, 7]: 97.4%; inhibition at 0.625 µM [2, 8]: 97.6%; inhibition at 0.625 µM [2, 9]: 97.2%; inhibition at […] [2, 7]: 97.6%; inhibition at […] [2, 8]: 96.9%; inhibition at […] [2, 9]: 98.3%; inhibition at 10 µM [2, 7]: 97.3%; inhibition at 10 µM [2, 8]: 97.4%; inhibition at 10 µM [2, 9]: 97.3%; TGI ([4]; 50 mg/kg): 105%; Tumor Volume D 1 ([4]; 50 mg/kg): 161 mm^3; Tumor volume D 21 ([4]; 50 mg/kg): 72 mm^3
2 | 2.1 | 32 | > 10000 | CCc1c(N2CCN(C(=O)c3ncnc(C)c3O)CC2)c(=O)n2nc(-c3cc4c(s3)COC4)nc2n1CC(=O)Nc1ccc(C(F)(F)F)cc1C [P29] | 18.3 | 18 | 18.6 | 25.6 | 26.1 | 25.1 | 14.7 | 19.4 | 9.96 | 19.8 | 12.8 | 26.8 | 21.2 | 17.4 | 25.1 | 70.9 | 70.9 | inhibitory activity on SW48 cells ([2]; 39 nM): high inhibitory activity; inhibition at 0.0390625 µM [2, 9]: 70.9%; inhibition at 0.15625 µM [2, 7]: 97.3%; inhibition at 0.15625 µM [2, 8]: 96.5%; inhibition at 0.15625 µM [2, 9]: 98.1%; inhibition at 0.625 µM [2, 7]: 99.4%; inhibition at 0.625 µM [2, 8]: 99.1%; inhibition at 0.625 µM [2, 9]: 99.6%; inhibition at […] [2, 7]: 99%; inhibition at […] [2, 8]: 99.1%; inhibition at […] [2, 9]: 99%; inhibition at 10 µM [2, 7]: 99.8%; inhibition at 10 µM [2, 8]: 100%; inhibition at 10 µM [2, 9]: 99.6%; TGI ([4]; 120 mg/kg): 105%; Tumor Volume D 1 ([4]; 120 mg/kg): 174 mm^3; Tumor volume D 21 ([4]; 120 mg/kg): 36 mm^3
3 | 1.3 | 34 | > 10000 | CCc1c(N2CCN(C(=O)c3ncnc(C)c3O)CC2)c(=O)n2nc(-c3cc4c(s3)COC4)nc2n1CC(=O)Nc1ccc(C(F)(F)F)c2ccoc12 [P57] |  |  |  |  |  |  |  |  |  |  |  |  |  |  |  |  |  | F [5]: 57%; AUC(0-t) ([6]; iv, 2 mg/kg): 3150 ng·h/mL; C0 ([6]; iv, 2 mg/kg): 2920 ng/mL; clearance ([6]; iv, 2 mg/kg): 10.5 mL/min/kg; half-life ([6]; iv, 2 mg/kg): 1.2 h; AUC(0-t) ([6]; po, 10 mg/kg): 8930 ng·h/mL; Cmax ([6]; po, 10 mg/kg): 4260 ng/mL; Tmax ([6]; po, 10 mg/kg): 0.5 h; half-life ([6]; po, 10 mg/kg): 1.4 h
